Test results published in US20110117193A1, “ANTIRETROVIRAL DRUG FORMULATIONS FOR TREATMENT OF CHILDREN EXPOSED TO HIV/AIDS” (priority 2008, published 2011).

Test: pH of suspensions
Type: physicochemical
Conditions: 0.2% w/v solution in water
Description: The effect of the suspending agent and sweetener on the pH and viscosity of the suspensions was examined. AVICEL® RC 591, alone and in combination with other potential formulation components, was suspended in water. The pH of the suspensions was measured using a pH meter. The viscosity of the suspensions was measured on a Brookfield […] RV series viscometer: spindle size 4 at 20 rpm was used. The suspensions were visually inspected for signs of precipitation, sedimentation, and consistency.

pH of solution: 6.4
SMILES: OC[C@H]1O[C@H](O[C@]2(CCl)O[C@H](CCl)[C@@H](O)[C@@H]2O)[C@H](O)[C@@H](O)[C@H]1Cl [sucralose]
